According to US8367873B2, “Phenyl-substituted bicyclooctane-1,3-dione derivatives” (Bayer Cropscience AG, priority 2008, dated 2013):

Columns and labels:
Type in all cases: in vivo
[1] = test system: monocotylidonous and dicotylidonous weed and crop plants; test: Herbicidal pre-emergence action (other test plants); conditions: pre-emergence method, 80 g/ha, greenhouse, visual assessment vs untreated controls
Outline: (§1)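 Visual percent effect relative to untreated controls (0% = like control, 100% = dead) assessed three weeks after treatment in the greenhouse. Compounds, as wettable powders in water (600 l/ha, 0.2% wetting agent), were sprayed at different amounts onto covering soil over seeds sown in sandy loam.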

[2] = test system: Setaria viridis; test: Herbicidal post-emergence action; conditions: post-emergence method, 80 g/ha
Outline: (§2)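 One-leaf-stage greenhouse plants sprayed with WP at graded amounts (600 l/ha, 0.2% wetting agent); ~3 wk later, visual % effect rated vs untreated controls, 100% = dead, 0% = like control.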

[3] = test system: Echinocloa crus-galli; test: Herbicidal post-emergence action; conditions: post-emergence method, 80 g/ha
Outline: as §2

[4] = test system: Lolium multiflorum; test: Herbicidal post-emergence action; conditions: post-emergence method, 80 g/ha
Outline: as §2

[5] = test system: Alopecurus myosuroides; test: Herbicidal post-emergence action; conditions: post-emergence method, 80 g/ha
Outline: as §2

[6] = test system: monocotylidonous and dicotylidonous weed and crop plants; test: Herbicidal post-emergence action (other test plants); conditions: post-emergence method, 80 g/ha
Outline: as §2

[7] = test system: Setaria viridis; test: Herbicidal pre-emergence action; conditions: pre-emergence method, 80 g/ha, greenhouse, visual assessment vs untreated controls
Outline: as §1

[8] = test system: Echinocloa crus-galli; test: Herbicidal pre-emergence action; conditions: pre-emergence method, 80 g/ha, greenhouse, visual assessment vs untreated controls
Outline: as §1

[9] = test system: Lolium multiflorum; test: Herbicidal pre-emergence action; conditions: pre-emergence method, 80 g/ha, greenhouse, visual assessment vs untreated controls
Outline: as §1

[10] = test system: Alopecurus myosuroides; test: Herbicidal pre-emergence action; conditions: pre-emergence method, 80 g/ha, greenhouse, visual assessment vs untreated controls
Outline: as §1

| SMILES | herbicidal effect AVEFA [1] | herbicidal effect against SETVI (Setaria viridis) [2] | herbicidal effect against ECHCG (Echinochloa crus-galli) [3] | herbicidal effect against LOLMU (Lolium multiflorum) [4] | herbicidal effect against ALOMY (Alopecurus myosuroides) [5] | herbicidal effect against AVEFA (Avena fatua) [6] | herbicidal effect SETVI [7] | herbicidal effect ECHCG [8] | herbicidal effect LOLMU [9] | herbicidal effect ALOMY [10] |
| --- | --- | --- | --- | --- | --- | --- | --- | --- | --- | --- |
| CCOC1COC2(CC3C(=O)C(c4c(CC)cc(C)cc4CC)=C(OC(=O)C(C)C)C3C2)OC1 (centres unmarked) [I-b-16] | 80% | 100% | 100% | 100% | 100% | 90% | 100% | 100% | 100% | 100% |
| CCc1cc(C)cc(CC)c1C1=C([O-])C2CC3(CC2C1=O)OC(C)CC(C)O3.[Na+] (centres unmarked) [I-f-2] | 50% | 90% | 100% | 100% | 80% | 90% | 60% | 90% | 100% | 90% |
| COC(=O)OC1=C(c2c(C)cc(C)cc2C)C(=O)C2CC3(CC12)OCC=CCO3 (racemic) [I-c-52] | 70% | 100% | 90% | 100% | 100% | 80% | 70% | 50% | 100% | 60% |
| CCOC(=O)OC1=C(c2c(CC)cc(C)cc2CC)C(=O)C2CC3(CC12)OCCCS3 (mixture of isomers) [I-c-19] | 70% | 100% | 100% | 100% | 100% | 100% | 90% | 50% | 90% | 100% |
| CCOC(=O)OC1=C(c2c(C)cc(C)cc2OC)C(=O)C2CC3(CC12)OCC=CCO3 (racemic) [I-c-65] | 60% | 100% | 100% | 100% | 100% | 100% | 90% | 80% | 100% | 100% |
| CCc1cc(C)cc(C)c1C1=C(OC(=O)OC(C)C)C2CC3(CC2C1=O)OCC=CCO3 (racemic) [I-c-74] | 60% | 100% | 100% | 100% | 60% | 70% | 100% | 100% | 100% | 70% |
| CCc1cc(C)cc(CC)c1C1=C(OC(=O)C(C)(C)C)C2CC3(CC2C1=O)OCCCO3 (centres unmarked) [I-b-22] | 70% | 100% | 100% | 100% | 100% | 100% | 80% | 100% | 100% | 100% |
| CCOC(=O)OC1=C(c2c(C)cc(C)cc2C)C(=O)C2CC3(CC12)OCC=CCO3 (racemic) [I-c-51] | 60% | 100% | 100% | 100% | 100% | 40% | 90% | 30% | 90% | 100% |
| COc1cc(C)cc(C)c1C1=C(OC(=O)C(C)C)C2CC3(CC2C1=O)OCCCO3 (centres unmarked) [I-b-64] | 50% | 100% | 100% | 100% | 100% | 100% | 90% | 0% | 100% | 60% |
| CCOC(=O)OC1=C(c2c(CC)cc(C)cc2CC)C(=O)C2CC3(CC12)OC(C)CC(C)O3 (centres unmarked) [I-c-13] | 50% | 90% | 100% | 100% | 70% | 80% | 60% | 60% | 80% | 90% |
| Cc1cc(C)c(C2=C(OC(=O)C(C)C)C3CC4(CC3C2=O)OCCCCO4)c(C)c1 (centres unmarked) [I-b-41] | 40% | 80% | 100% | 100% | 40% | 0% | 50% | 0% | 100% | 50% |
| C=C1CC2C(=O)C(c3c(C)cc(C)cc3C)=C(OC(=O)OCC)C2C1 (racemic) [I-c-45] | 80% | 90% | 90% | 100% | 40% | 0% | 80% | 80% | 80% | 60% |
| CCc1cc(C)cc(CC)c1C1=C(O)[C@H]2CC3(C[C@H]2C1=O)OCC(OC)CO3 (relative stereo) [I-a-26] | 70% | 100% | 100% | 100% | 100% | 100% | 100% | 100% | 100% | 100% |
| C=C1CC2C(=O)C(c3c(C)cc(C)cc3CC)=C(OC(=O)OC)C2C1 (racemic) [I-c-77] | 80% | 90% | 100% | 90% | 0% | 0% | 100% | 80% | 90% | 80% |
